Assay results taken from publication PMC11597210, “A Comprehensive Evaluation of a Coumarin Derivative and Its Corresponding Palladium Complex as Potential Therapeutic Agents in the Treatment of Gynecological Cancers: Synthesis, Characterization, and Cytotoxicity” (Pharmaceutics, 2024).

Experiments:
[1] = tested on: Peritoneal exudate cells (PECs); assay: Crystal violet (CV) viability assay on primary cells, 72 h; assay type: cell-based, C57BL/6 mice; settings: mouse peritoneal exudate cells, read-out: IC50 PEC CV
Protocol: Peritoneal exudate cells (PECs) were isolated from the peritonea of 8–12-week-old C57BL/6 mice via a cavity rinse with ice-cold PBS. Cells were seeded in HEPES-buffered RPMI-1640 medium supplemented with 5% heat-inactivated FBS and antibiotics. The animals were from the animal facility of the Institute for Biological Research “Siniša Stanković” (IBISS) National Institute of the Republic of Serbia (Belgrade, Serbia). Animal handling was conducted and protocols were followed by the local Institutional Animal Care and Use Committee (IACUC) in accordance with local guidelines as well as European Community directives (EEC Directive of 1986; 86/609/EEC). The ethical approval number is 323-07-02147/2023-05.
(§1) The cells were treated with a range of CL, CC, and cisplatin concentrations for 72 h. At the end of the treatment, the cell viability was determined using MTT and crystal violet assays, as previously described. PECs were seeded at a density of 1.8 × 10^5 cells/well in 96-well plates, and two hours later, non-adherent cells were removed by washing the wells with PBS. The remaining adherent cells were treated the same way as the tumor cells. The PEC viability was estimated after 72 h of treatment using the CV assay only.

HeLa cells = assay: CFSE staining of cell proliferation, flow cytometry; assay type: cell-based, human; settings: IC50 dose, 72 h
Protocol: To analyze the distribution of cells in the different phases of the cell cycle using flow cytometry, cells were collected at the end of the treatment and processed as previously described. To detect the presence of apoptotic cells, the treated HeLa cells were double-stained with Annexin V-FITC/PI in Annexin V-binding buffer according to the manufacturer’s instructions. For caspase activation, cells were incubated with FITC-labeled pan-caspase inhibitor ApoStat (0.5 μg/mL) for 30 min at 37 °C. The cells were then washed, resuspended in PBS, and analyzed using flow cytometry. The effect of the compounds on cell proliferation was analyzed via CFSE staining using flow cytometry in the same manner as previously described. DAF-FM was used to determine the intracellular production of nitric oxide in the treated HeLa cells, DHE was used to detect intracellular superoxide and hydrogen peroxide, and DHR123 was used to detect the cumulative intracellular production of reactive oxygen species and nitrogen species. These assays were performed as described in previously published studies. All flow cytometry data were obtained in a CytoFLEX cytometer (Beckman Coulter, Brea, CA, USA) and analyzed using FlowJo software v10 (Tree Star, Ashland, OR, USA).

[2] = target: T1, human serum albumin (HSA) (Homo sapiens, UniProt P02768); assay: Spectrofluorimetric titration, HSA fluorescence quenching; assay type: binding; settings: for KSV (Stern–Volmer quenching constant) / kq (quenching rate constant): PBS, 2.0 µM HSA; for ΔH° of HSA binding / ΔS° of HSA binding: van't Hoff, 296–310 K
T1 construct: purchased Sigma-Aldrich
T1 sequence (P02768 25-609): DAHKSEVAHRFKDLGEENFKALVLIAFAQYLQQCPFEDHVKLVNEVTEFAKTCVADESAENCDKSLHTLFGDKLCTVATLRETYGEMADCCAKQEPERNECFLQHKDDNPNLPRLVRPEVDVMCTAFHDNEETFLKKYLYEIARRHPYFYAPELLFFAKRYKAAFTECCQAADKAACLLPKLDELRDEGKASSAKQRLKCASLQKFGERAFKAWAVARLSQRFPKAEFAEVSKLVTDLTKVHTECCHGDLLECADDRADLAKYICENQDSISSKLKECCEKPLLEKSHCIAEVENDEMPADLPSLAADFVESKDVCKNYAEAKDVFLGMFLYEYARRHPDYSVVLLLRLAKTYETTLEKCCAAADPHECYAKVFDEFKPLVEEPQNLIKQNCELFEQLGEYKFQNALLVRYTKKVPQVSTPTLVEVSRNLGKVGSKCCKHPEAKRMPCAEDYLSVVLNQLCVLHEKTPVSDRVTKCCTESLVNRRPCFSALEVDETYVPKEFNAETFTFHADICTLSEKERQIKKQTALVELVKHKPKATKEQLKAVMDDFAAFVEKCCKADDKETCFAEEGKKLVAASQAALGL
Protocol: The fluorescence spectroscopy method was used to examine the possible binding ways of human serum albumin (HSA) with the investigated compounds. […] The fluorescence of HSA was recorded at an excitation wavelength of 290 nm, while the recording range was set at 300–500 nm. The gradual decrease in the maximum emission intensity of the HSA with an increasing concentration of all investigated compounds was monitored at about 330 nm.
Fluorescence quenching parameters were determined using the Stern–Volmer equation (Equation (2)):(2) I0/I=1+kqτ0Q=1+KSVQ.
The notations in the previous equation include I0 and I as HSA fluorescence intensities in the absence and presence of the quencher, while KSV and kq are the Stern–Volmer quenching constant and the quenching rate constant of HSA, τ0 is the fluorophore lifetime of HSA (in the absence of the quencher), and [Q] is the concentration of the quencher. The binding constant (Kb) and the number of binding sites (n) were calculated using the Hill equation (Equation (3)):(3) logI0−I/I=logKb+nlogQ. where I0 and I represent the HSA fluorescence intensities in the absence and presence of the quencher, and [Q] is the concentration of the quencher.
The thermodynamic parameters ΔH°, ΔS°, and ΔG° were calculated using the following equations:(4) lnKb=−∆H^°/RT+∆S^°/R (5) ∆G^°=∆H^°−T∆S^°
To obtain information on the quenching, binding, and thermodynamic parameters for the interaction of the ligand and complex (CL and CC) towards human serum albumin (HSA), spectrofluorimetric investigations were carried out. All experiments were performed under physiological conditions in phosphate-buffered saline (PBS) and at different temperatures (296 K, 303 K, and 310 K).

[3] = tested on: A2780 (human ovarian carcinoma cells); assay: MTT viability assay, 72 h; assay type: cell-based; settings: A2780, 72 h, mean ± SD
Protocol: (§2) HeLa (human cervical adenocarcinoma cells), A2780 (human ovarian carcinoma cells), MCF7 (human breast adenocarcinoma cells), and HCT116 (human colorectal carcinoma cells) were purchased from American Type Culture Collection (ATCC, Rockville, MD, USA). HeLa, MCF-7, and HCT116 cells were cultivated in HEPES-buffered RPMI-1640, while A2780 cells were cultivated in DMEM. The media were supplemented with 10% heat-inactivated FBS and antibiotics (100 units/mL penicillin and 100 μg/mL streptomycin). The cells were grown at 37 °C in a humidified atmosphere with 5% CO2. For the viability assays, HeLa (3 × 10^3/well), A2780 (8 × 10^3/well), MCF7 (7 × 10^3/well), and HCT116 (6 × 10^3/well) cells were seeded in adherent flat-bottom 96-well plates. For the flow cytometric analyses, HeLa cells were seeded at 8 × 10^4 in 6-well plates.
as §1

[4] = tested on: HCT116 (human colorectal carcinoma cells); assay: MTT viability assay, 72 h; assay type: cell-based; settings: HCT-116, HCT116, 72 h, mean ± SD
Protocol: as §2, §1

[5] = tested on: HeLa (human cervical adenocarcinoma cells); assay: MTT viability assay, 72 h; assay type: cell-based; settings: mean ± SD of three experiments
Protocol: as §2, §1

[6] = tested on: MCF7 (human breast adenocarcinoma cells); assay: MTT viability assay, 72 h; assay type: cell-based; settings: MCF7, 72 h, mean ± SD
Protocol: as §2, §1

[7] = tested on: A2780 (human ovarian carcinoma cells); assay: Crystal violet (CV) viability assay, 72 h; assay type: cell-based; settings: A2780, 72 h, mean ± SD
Protocol: as §2, §1

[8] = tested on: HCT116 (human colorectal carcinoma cells); assay: Crystal violet (CV) viability assay, 72 h; assay type: cell-based; settings: HCT-116, HCT116, 72 h, mean ± SD
Protocol: as §2, §1

[9] = tested on: HeLa (human cervical adenocarcinoma cells); assay: Crystal violet (CV) viability assay, 72 h; assay type: cell-based
Protocol: as §2, §1

[10] = tested on: MCF7 (human breast adenocarcinoma cells); assay: Crystal violet (CV) viability assay, 72 h; assay type: cell-based; settings: MCF7, 72 h, mean ± SD
Protocol: as §2, §1

Row | Compound | IC50 [1] [µM] | effect on proliferation of HeLa cells (CFSE) (HeLa cells) | n (HSA), number of binding sites ([2]; 296 K) | ΔG° of HSA binding ([2]; 296 K) [kcal/mol] | KSV (Stern–Volmer quenching constant) ([2]; 296 K) [M⁻¹] | kq (quenching rate constant) ([2]; 296 K) | n (HSA), number of binding sites ([2]; 303 K) | ΔG° of HSA binding ([2]; 303 K) [kcal/mol] | KSV (Stern–Volmer quenching constant) ([2]; 303 K) [M⁻¹] | kq (quenching rate constant) ([2]; 303 K) [M⁻¹ s⁻¹] | n (HSA), number of binding sites ([2]; 310 K) | ΔG° of HSA binding ([2]; 310 K) [kcal/mol] | KSV (Stern–Volmer quenching constant) ([2]; 310 K) [M⁻¹] | kq (quenching rate constant) ([2]; 310 K) [M⁻¹ s⁻¹] | ΔH° of HSA binding [2] [kcal/mol] | ΔS° of HSA binding [2] [J mol^−1K^−1] | further results
1 | COc1cc([N+]2=C(C)c3c(c4ccc(OC(C)=O)cc4oc3=O)[O][Pd-2]23[O]c2c(c(=O)oc4cc(OC(C)=O)ccc24)C(C)=[N+]3c2ccc(O)c(OC)c2)ccc1O [CC, Bis-3-(1-((4-hydroxy-3-methoxyphenyl)amino)ethylidene)-2,4-dioxochroman-7-yl acetate palladium(II) complex] | 92.9 | does not inhibit the proliferation of HeLa cells | 1.07 | -7.921 | 295000 | 2.95e+13 M⁻¹ | 1.06 | -7.99 | 272000 | 2.72e+13 | 1.10 | -8.059 | 280000 | 2.8e+13 | -5.014 | −41.09 | –
2 | COc1cc(N/C(C)=C2/C(=O)Oc3cc(OC(C)=O)ccc3C2=O)ccc1O [CL, (E)-3-(1-((4-hydroxy-3-methoxyphenyl)amino)ethylidene)-2,4-dioxochroman-7-yl acetate] | 96.3 | does not inhibit the proliferation of HeLa cells | 0.66 | -4.515 | 95600 | 9.56e+12 M⁻¹ s⁻¹ | 0.71 | -5.533 | 76900 | 7.69e+12 | 1.09 | -6.551 | 72700 | 7.27e+12 | 38.535 | 608.51 | IC50 [3]: 21.1 ± 1.4 µM; IC50 [4]: 54.4 ± 4.3 µM; IC50 [5]: 11.1 ± 0.4 µM; IC50 [6]: 45.6 ± 3.5 µM; IC50 [7]: 24.1 ± 1.4 µM; IC50 [8]: 60.2 ± 3.8 µM; IC50 ([9]; CV assay, mean ± SD of three experiments, read-out: IC50 HeLa CV): 17.7 ± 1.2 µM; IC50 ([9]; rounded IC50 used as treatment dose, assay not stated (matches CV), read-out: IC50 values on HeLa cells as used for flow cytometry treatment): 17 µM; IC50 [10]: 44 ± 1.7 µM
